Among the test systems are HOP-62; RPMI-8226; UACC-62; SK-MEL-5; T47D; CCRF-CEM; NCI-H23; SW-620; A549; MDA-MB-435; 786-0; SF-268; SK-MEL-28; U-251; RXF 393; M14; HT-29; SF-295; OVCAR-5; A498.
Assay in all cases: NCI-60 cell line screen, 48 h

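Briefly, cells in 96-well plates were exposed to five compound concentrations for 48 h, and endpoints were estimated by linear interpolation. The concentration for 50% growth inhibition is given as GI50.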 Calls of active or inactive are those of the source. Cut-off read from the data, not from the text of the source: active = GI50 up to about 1.1 µM and inactive = higher.

As to `CCOC(=O)c1ccc(-n2nnc(C(N)=O)c2O)cc1`, the GI50 with HOP-62, with RPMI-8226, in the test on UACC-62, in the test on SK-MEL-5, with T47D and in the test on CCRF-CEM was > 100 µM (inactive) each time. Further, the GI50 with NCI-H23, in the test on SW-620, in the test with A549, in the test with MDA-MB-435, with 786-0 and in the test on SF-268 was > 100 µM (inactive) in each case. Moreover, the GI50 in the test on SK-MEL-28, with U-251, in the test with RXF 393, in the test with M14, in the test with HT-29 and with SF-295 was > 100 µM (inactive) each time. The GI50 with OVCAR-5 was > 100 µM (inactive).
With `COc1ccc(C(=O)/C=C/c2ccc(OCCCOc3ccc(/C=C/C(=O)c4ccc(OC)cc4)cc3)cc2)cc1`, the GI50 in the test with HOP-62 was > 100 µM (inactive); in the test on RPMI-8226, 21.8 µM (inactive); in the test with UACC-62, > 100 µM (inactive); with SK-MEL-5, > 100 µM (inactive); in the test on T47D, > 100 µM (inactive); in the test on CCRF-CEM, > 100 µM (inactive). Besides, the GI50 in the test on SW-620 is > 100 µM (inactive); in the test on A549, > 100 µM (inactive); in the test with MDA-MB-435, > 100 µM (inactive); in the test with 786-0, > 100 µM (inactive); with SF-268, 52.2 µM (inactive); in the test on SK-MEL-28 it was 63 µM (inactive). Also, the GI50 is > 100 µM (inactive) in the test with U-251; > 100 µM (inactive) with RXF 393; > 100 µM (inactive) in the test on M14; 56.1 µM (inactive) with HT-29; > 100 µM (inactive) with SF-295; > 100 µM (inactive) with OVCAR-5.
Consider `CN(Cc1cnc2nc(N)nc(N)c2n1)c1ccc(C(=O)NCCCS(=O)(=O)O)cc1`, for which the GI50 in the test with HOP-62, in the test with RPMI-8226, in the test on UACC-62, in the test with SK-MEL-5, in the test on T47D and with NCI-H23 was > 100 µM (inactive) throughout. The GI50 in the test with SW-620, in the test on A549, in the test on A498, in the test with MDA-MB-435, in the test on 786-0 and in the test on SF-268 was > 100 µM (inactive) in each case. The GI50 in the test with SK-MEL-28, with U-251, in the test with M14, in the test on HT-29, with SF-295 and with OVCAR-5 was > 100 µM (inactive) each time.
As to `Oc1ccc(-c2nc(-c3cccnc3)c(-c3ccc(F)cc3)[nH]2)cc1`, the GI50 with HOP-62 was 21.6 µM (inactive); in the test with RPMI-8226 it was 10.2 µM (inactive); with UACC-62, 16 µM (inactive); in the test on SK-MEL-5, 16.3 µM (inactive); in the test with T47D it was 17.4 µM (inactive); in the test on CCRF-CEM, 10.7 µM (inactive). In addition, the GI50 in the test with NCI-H23 was 12.7 µM (inactive); in the test on SW-620, 17.8 µM (inactive); in the test on A549 it was 21.8 µM (inactive); in the test on MDA-MB-435, 16.2 µM (inactive); in the test with 786-0 it was 22.9 µM (inactive); with SF-268 it was 22.5 µM (inactive). In addition, the GI50 with SK-MEL-28 is 19.9 µM (inactive); in the test with U-251, 17.3 µM (inactive); in the test with RXF 393, 17.6 µM (inactive); in the test with M14, 17.7 µM (inactive); in the test with HT-29 it was 18.1 µM (inactive); in the test on SF-295, 16.7 µM (inactive). Further, the GI50 in the test with OVCAR-5 was 30.2 µM (inactive).
With `O=c1c(C(c2ccc(/C=C/c3ccccc3)cc2)c2c(O)oc3ccccc3c2=O)c(O)oc2ccccc12`, the GI50 in the test with HOP-62 is 27.8 µM (inactive); with RPMI-8226 it was 27.2 µM (inactive); with UACC-62 it was 35.6 µM (inactive); with SK-MEL-5 it was 26.5 µM (inactive); in the test with T47D, 39.2 µM (inactive); in the test with CCRF-CEM, 41.4 µM (inactive). In addition, the GI50 in the test with NCI-H23 is 28.1 µM (inactive); in the test on SW-620 it was 37.9 µM (inactive); in the test with A498 it was 30.5 µM (inactive); in the test with MDA-MB-435, 29 µM (inactive); with 786-0, 24.4 µM (inactive); in the test on SF-268 it was 22.4 µM (inactive). In addition, the GI50 in the test on SK-MEL-28 was 33.3 µM (inactive); in the test on U-251, 18.5 µM (inactive); in the test on HT-29, 20.3 µM (inactive).
As for `Oc1cccc2c1[nH]c1c(C3=C[C@@]4(O)CC/C=C\CCCCN5CC[C@@H]3[C@]3(CC6/C=C\CCCCN6[C@H]34)C5)nccc12` (some centres undefined), the GI50 is 0.764 µM (active) in the test with HOP-62; 0.61 µM (active) in the test with RPMI-8226; 1.47 µM (inactive) with UACC-62; 1.59 µM (inactive) in the test on SK-MEL-5; 0.804 µM (active) in the test with T47D; 0.973 µM (active) in the test with CCRF-CEM. Further, the GI50 in the test with NCI-H23 was 0.912 µM (active); in the test on SW-620, 1.43 µM (inactive); in the test on A549 it was 2.04 µM (inactive); in the test with A498, 2.24 µM (inactive); with MDA-MB-435, 0.798 µM (active); with 786-0, 0.659 µM (active). Moreover, the GI50 was 1.58 µM (inactive) in the test on SF-268; 1.66 µM (inactive) with SK-MEL-28; 1.08 µM (active) in the test with U-251; 0.966 µM (active) in the test with M14; 0.796 µM (active) in the test with HT-29; 1.75 µM (inactive) with SF-295. For the same molecule, the GI50 in the test with OVCAR-5 was 1.07 µM (active).
For `COc1cccc2c1OC1c3ccccc3OCC1C2` (centres undefined), the GI50 in the test with HOP-62 was > 100 µM (inactive); in the test on RPMI-8226 it was > 100 µM (inactive); with UACC-62 it was > 100 µM (inactive); in the test with SK-MEL-5 it was 35.7 µM (inactive); in the test with T47D, 44.1 µM (inactive); with CCRF-CEM, 42.8 µM (inactive). The GI50 in the test on NCI-H23, in the test on SW-620, in the test on A549, in the test on A498, in the test with MDA-MB-435 and in the test with 786-0 was > 100 µM (inactive) throughout. The GI50 in the test on SF-268, in the test on U-251, in the test on M14, in the test with HT-29, in the test with SF-295 and with OVCAR-5 was > 100 µM (inactive) in each case.
As for `COc1ccc(-c2c(-c3ccccc3)c(C)c3ccccn23)cc1`, the GI50 was > 100 µM (inactive) in the test on HOP-62; 47.6 µM (inactive) with RPMI-8226; > 100 µM (inactive) in the test with UACC-62; 77.8 µM (inactive) in the test on SK-MEL-5; 22.8 µM (inactive) in the test on T47D; 28.2 µM (inactive) in the test on CCRF-CEM. Moreover, the GI50 is > 100 µM (inactive) with NCI-H23; 58.9 µM (inactive) with SW-620; 87.3 µM (inactive) in the test on A549; > 100 µM (inactive) in the test with A498; 52.2 µM (inactive) in the test on MDA-MB-435; > 100 µM (inactive) in the test with 786-0. For the same molecule, the GI50 was 79.8 µM (inactive) with SK-MEL-28; > 100 µM (inactive) in the test on U-251; > 100 µM (inactive) with M14; 33.4 µM (inactive) with HT-29; > 100 µM (inactive) with SF-295; > 100 µM (inactive) in the test on OVCAR-5.

The values are drawn from ChEMBL document CHEMBL1201862, “PubChem BioAssay data set” (2004).
